# Reference: ChEMBL document CHEMBL5537164, “Discovery of Potent, Orally Bioavailable, Tricyclic NLRP3 Inhibitors” (J Med Chem, 2024)
# System: not listed separately
# Assay: Equilibrium solubility of compound in DMSO at pH 6.8 by shake flask method
# Type: physicochemical
# Settings: not given
row,SMILES,solubility
1,CCc1nn(CC(=O)Nc2cccc(C(C)=O)c2)c(=O)c2cc3sccc3n12,4 µM
2,CCc1nn(CC(=O)N(C)c2ccccc2)c(=O)c2cc3sccc3n12,6 µM
3,CC(C)c1nn(CC(=O)NC2CCOCC2)c(=O)c2cc3sc(Cl)cc3n12,3 µM
4,CC(C)c1nn(CC(=O)Nc2cccnc2)c(=O)c2cc3sc(Cl)cc3n12,10 µM
5,CC(C)c1nn(CC(=O)N[C@@H]2CCCN(C)C2)c(=O)c2cc3sc(Cl)cc3n12,> 1000 µM
6,CC(C)c1nn(CC(=O)Nc2cccnc2)c(=O)c2cc3sccc3n12,19 µM
7,CCCc1nn(CC(=O)Nc2cccnc2)c(=O)c2cc3sccc3n12,3 µM
8,CC(C)c1nn(CC(=O)N[C@@H]2CCCNC2)c(=O)c2cc3sc(Cl)cc3n12,> 1000 µM
9,CCc1nn(CC(=O)Nc2ccccc2)c(=O)c2cc3sccc3n12,2 µM
10,CC(C)(O)c1nn(CC(=O)Nc2cccnc2)c(=O)c2cc3sccc3n12,23 µM
11,CC(C)c1nn(CC(=O)N[C@@H]2CCCN(C)C2)c(=O)c2cc3scnc3n12,> 1000 µM
12,CCc1nn(CC(=O)NC2CCCNC2)c(=O)c2cc3sccc3n12 (stereo unspecified),> 1000 µM
13,CCc1nn(CC(=O)Nc2ccncn2)c(=O)c2cc3sccc3n12,7 µM

# Further lines, results first:
row,solubility,SMILES
1,26 µM,O=C(Cn1nc(C2CC2)n2c(cc3sccc32)c1=O)Nc1cccnc1
2,251 µM,CC(C)c1nn(CC(=O)Nc2cccnc2)c(=O)c2cc3sc(F)cc3n12
3,21 µM,CCc1nn(CC(=O)Nc2cccnc2)c(=O)c2cc3sccc3n12
4,4 µM,CCc1nn(CC(=O)Nc2cccc(O)c2)c(=O)c2cc3sccc3n12
5,36 µM,CC(C)(O)c1nn(CC(=O)N[C@H]2C[C@@](C)(O)C2)c(=O)c2cc3sc(Cl)cc3n12
6,128 µM,CCc1nn(CC(=O)NC)c(=O)c2cc3sccc3n12
7,91 µM,O=C(Cn1ncn2c(cc3sccc32)c1=O)Nc1cccnc1

# System: not listed separately
# Assay: Lipophilicity, logD of compound at pH 7.4
# Type: physicochemical
# Settings: buffer
row,SMILES,logD
1,CC(C)c1nn(CC(=O)NC2CCOCC2)c(=O)c2cc3sc(Cl)cc3n12,3
2,CC(C)c1nn(CC(=O)Nc2cccnc2)c(=O)c2cc3sc(Cl)cc3n12,4
3,CC(C)c1nn(CC(=O)N[C@@H]2CCCN(C)C2)c(=O)c2cc3sc(Cl)cc3n12,2.4
4,CC(C)c1nn(CC(=O)Nc2cccnc2)c(=O)c2cc3sccc3n12,3.1
5,CCCc1nn(CC(=O)Nc2cccnc2)c(=O)c2cc3sccc3n12,3
6,CC(C)c1nn(CC(=O)N[C@@H]2CCCNC2)c(=O)c2cc3sc(Cl)cc3n12,1
7,CC(C)(O)c1nn(CC(=O)Nc2cccnc2)c(=O)c2cc3sccc3n12,2.8
8,CC(C)c1nn(CC(=O)N[C@@H]2CCCN(C)C2)c(=O)c2cc3scnc3n12,1.1
9,CCc1nn(CC(=O)NC2CCCNC2)c(=O)c2cc3sccc3n12 (stereo unspecified),-0.2

# More lines, now with the values ahead:
row,logD,SMILES
1,2.7,O=C(Cn1nc(C2CC2)n2c(cc3sccc32)c1=O)Nc1cccnc1
2,3.4,CC(C)c1nn(CC(=O)Nc2cccnc2)c(=O)c2cc3sc(F)cc3n12
3,2.6,CCc1nn(CC(=O)Nc2cccnc2)c(=O)c2cc3sccc3n12
4,2.8,CC(C)(O)c1nn(CC(=O)N[C@H]2C[C@@](C)(O)C2)c(=O)c2cc3sc(Cl)cc3n12
5,1.9,O=C(Cn1ncn2c(cc3sccc32)c1=O)Nc1cccnc1

# System: not listed separately
# Assay: Metabolic stability in human liver microsomes assessed as intrinsic clearance
# Type: ADME, Microsome
# Settings: read-out: CLH
row,SMILES,microsomal CLint
1,CCc1nn(CC(=O)Nc2cccc(C(C)=O)c2)c(=O)c2cc3sccc3n12,299 µL/min/mg
2,CCc1nn(CC(=O)N(C)c2ccccc2)c(=O)c2cc3sccc3n12,971 µL/min/mg
3,CC(C)c1nn(CC(=O)NC2CCOCC2)c(=O)c2cc3sc(Cl)cc3n12,30 µL/min/mg
4,CC(C)c1nn(CC(=O)Nc2cccnc2)c(=O)c2cc3sc(Cl)cc3n12,44 µL/min/mg
5,CC(C)c1nn(CC(=O)N[C@@H]2CCCN(C)C2)c(=O)c2cc3sc(Cl)cc3n12,59 µL/min/mg
6,CC(C)c1nn(CC(=O)Nc2cccnc2)c(=O)c2cc3sccc3n12,144 µL/min/mg
7,CCCc1nn(CC(=O)Nc2cccnc2)c(=O)c2cc3sccc3n12,101 µL/min/mg
8,CC(C)c1nn(CC(=O)N[C@@H]2CCCNC2)c(=O)c2cc3sc(Cl)cc3n12,12 µL/min/mg
9,CCc1nn(CC(=O)Nc2ccccc2)c(=O)c2cc3sccc3n12,269 µL/min/mg
10,CC(C)(O)c1nn(CC(=O)Nc2cccnc2)c(=O)c2cc3sccc3n12,68 µL/min/mg
11,CC(C)c1nn(CC(=O)N[C@@H]2CCCN(C)C2)c(=O)c2cc3scnc3n12,27 µL/min/mg
12,CCc1nn(CC(=O)NC2CCCNC2)c(=O)c2cc3sccc3n12 (stereo unspecified),< 10 µL/min/mg
13,CCc1nn(CC(=O)Nc2ccncn2)c(=O)c2cc3sccc3n12,69 µL/min/mg

# The next lines start with the values.
row,microsomal CLint,SMILES
1,76 µL/min/mg,O=C(Cn1nc(C2CC2)n2c(cc3sccc32)c1=O)Nc1cccnc1
2,79 µL/min/mg,CC(C)c1nn(CC(=O)Nc2cccnc2)c(=O)c2cc3sc(F)cc3n12
3,63 µL/min/mg,CCc1nn(CC(=O)Nc2cccnc2)c(=O)c2cc3sccc3n12
4,405 µL/min/mg,CCc1nn(CC(=O)Nc2cccc(O)c2)c(=O)c2cc3sccc3n12
5,< 10 µL/min/mg,CC(C)(O)c1nn(CC(=O)N[C@H]2C[C@@](C)(O)C2)c(=O)c2cc3sc(Cl)cc3n12
6,54 µL/min/mg,CCc1nn(CC(=O)NC)c(=O)c2cc3sccc3n12
7,< 10 µL/min/mg,O=C(Cn1ncn2c(cc3sccc32)c1=O)Nc1cccnc1

# System: not listed separately
# Assay: Metabolic stability in mouse liver microsomes assessed as intrinsic clearance
# Type: ADME, Microsome
# Settings: read-out: CLH
row,SMILES,microsomal CLint
1,CC(C)c1nn(CC(=O)NC2CCOCC2)c(=O)c2cc3sc(Cl)cc3n12,129 µL/min/mg
2,CC(C)c1nn(CC(=O)Nc2cccnc2)c(=O)c2cc3sc(Cl)cc3n12,124 µL/min/mg
3,CC(C)c1nn(CC(=O)N[C@@H]2CCCN(C)C2)c(=O)c2cc3sc(Cl)cc3n12,364 µL/min/mg
4,CC(C)c1nn(CC(=O)Nc2cccnc2)c(=O)c2cc3sccc3n12,490 µL/min/mg
5,CCCc1nn(CC(=O)Nc2cccnc2)c(=O)c2cc3sccc3n12,> 1000 µL/min/mg
6,CC(C)c1nn(CC(=O)N[C@@H]2CCCNC2)c(=O)c2cc3sc(Cl)cc3n12,55 µL/min/mg
7,CC(C)(O)c1nn(CC(=O)Nc2cccnc2)c(=O)c2cc3sccc3n12,300 µL/min/mg
8,CC(C)c1nn(CC(=O)N[C@@H]2CCCN(C)C2)c(=O)c2cc3scnc3n12,231 µL/min/mg
9,CCc1nn(CC(=O)NC2CCCNC2)c(=O)c2cc3sccc3n12 (stereo unspecified),50 µL/min/mg

# Further lines, results first:
row,microsomal CLint,SMILES
1,464 µL/min/mg,O=C(Cn1nc(C2CC2)n2c(cc3sccc32)c1=O)Nc1cccnc1
2,227 µL/min/mg,CC(C)c1nn(CC(=O)Nc2cccnc2)c(=O)c2cc3sc(F)cc3n12
3,412 µL/min/mg,CCc1nn(CC(=O)Nc2cccnc2)c(=O)c2cc3sccc3n12
4,33 µL/min/mg,CC(C)(O)c1nn(CC(=O)N[C@H]2C[C@@](C)(O)C2)c(=O)c2cc3sc(Cl)cc3n12
5,48 µL/min/mg,O=C(Cn1ncn2c(cc3sccc32)c1=O)Nc1cccnc1

# System: not listed separately
# Assay: Apparent permeability from apical to basolateral side in MDCK cells by high-throughput assay
# Type: ADME, cell-based, Canis lupus familiaris
# Settings: dog
row,SMILES,Papp A→B
1,CCc1nn(CC(=O)Nc2cccc(C(C)=O)c2)c(=O)c2cc3sccc3n12,41 ×10⁻⁶ cm/s
2,CCc1nn(CC(=O)N(C)c2ccccc2)c(=O)c2cc3sccc3n12,19 ×10⁻⁶ cm/s
3,CC(C)c1nn(CC(=O)N[C@@H]2CCCN(C)C2)c(=O)c2cc3sc(Cl)cc3n12,15 ×10⁻⁶ cm/s
4,CC(C)c1nn(CC(=O)N[C@@H]2CCCNC2)c(=O)c2cc3sc(Cl)cc3n12,3 ×10⁻⁶ cm/s
5,CCc1nn(CC(=O)Nc2ccccc2)c(=O)c2cc3sccc3n12,25 ×10⁻⁶ cm/s
6,CCc1nn(CC(=O)NC2CCCNC2)c(=O)c2cc3sccc3n12 (stereo unspecified),0.7 ×10⁻⁶ cm/s
7,CCc1nn(CC(=O)Nc2ccncn2)c(=O)c2cc3sccc3n12,21 ×10⁻⁶ cm/s

# The next lines start with the values.
row,Papp A→B,SMILES
1,27 ×10⁻⁶ cm/s,CCc1nn(CC(=O)Nc2cccnc2)c(=O)c2cc3sccc3n12
2,5.7 ×10⁻⁶ cm/s,CCc1nn(CC(=O)Nc2cccc(O)c2)c(=O)c2cc3sccc3n12
3,26 ×10⁻⁶ cm/s,CCc1nn(CC(=O)NC)c(=O)c2cc3sccc3n12

# System: not listed separately
# Assay: Clearance in C57BL/6 mouse at 1 mg/kg, iv measured after 24 hrs by LC-MS/MS analysis
# Type: ADME, organism-based
# Settings: in vivo
row,clearance,SMILES
1,16.5 mL/min/kg,CC(C)c1nn(CC(=O)Nc2cccnc2)c(=O)c2cc3sc(Cl)cc3n12
2,58 mL/min/kg,CC(C)c1nn(CC(=O)N[C@@H]2CCCN(C)C2)c(=O)c2cc3sc(Cl)cc3n12
3,55.7 mL/min/kg,CC(C)c1nn(CC(=O)N[C@@H]2CCCNC2)c(=O)c2cc3sc(Cl)cc3n12

# System: not listed separately
# Assay: Oral bioavailability in C57BL/6 mouse measured after 24 hrs by LC-MS/MS analysis
# Type: ADME, organism-based
# Settings: in vivo
row,bioavailability,SMILES
1,55%,CC(C)c1nn(CC(=O)Nc2cccnc2)c(=O)c2cc3sc(Cl)cc3n12
2,7.8%,CC(C)c1nn(CC(=O)N[C@@H]2CCCN(C)C2)c(=O)c2cc3sc(Cl)cc3n12
3,27.6%,CC(C)c1nn(CC(=O)N[C@@H]2CCCNC2)c(=O)c2cc3sc(Cl)cc3n12

# System: not listed separately
# Assay: AUC (0 to infinity) in C57BL/6 mouse at 3 mg/kg, po measured after 24 hrs by LC-MS/MS analysis
# Type: ADME, organism-based
# Settings: in vivo
row,AUC(0-inf),SMILES
1,3.75 µM·h,CC(C)c1nn(CC(=O)Nc2cccnc2)c(=O)c2cc3sc(Cl)cc3n12
2,0.163 µM·h,CC(C)c1nn(CC(=O)N[C@@H]2CCCN(C)C2)c(=O)c2cc3sc(Cl)cc3n12
3,0.691 µM·h,CC(C)c1nn(CC(=O)N[C@@H]2CCCNC2)c(=O)c2cc3sc(Cl)cc3n12

# Molecular target: Nuclear factor NF-kappa-B complex (Homo sapiens, UniProt P19838+Q00653+Q04206)
# Assay: Inhibition of NF-kappaB in PMA-differentiated human THP-1 cells assessed as reduction in TNF-alpha release preincubated with compound for 1 hrs followed by Pam3CSK4 stimulation and measured after 3 hrs by HTRF assay
# Type: cell-based
# Settings: not given
# Nuclear factor NF-kappa-B complex, sequence (P19838 1-433 limits assumed): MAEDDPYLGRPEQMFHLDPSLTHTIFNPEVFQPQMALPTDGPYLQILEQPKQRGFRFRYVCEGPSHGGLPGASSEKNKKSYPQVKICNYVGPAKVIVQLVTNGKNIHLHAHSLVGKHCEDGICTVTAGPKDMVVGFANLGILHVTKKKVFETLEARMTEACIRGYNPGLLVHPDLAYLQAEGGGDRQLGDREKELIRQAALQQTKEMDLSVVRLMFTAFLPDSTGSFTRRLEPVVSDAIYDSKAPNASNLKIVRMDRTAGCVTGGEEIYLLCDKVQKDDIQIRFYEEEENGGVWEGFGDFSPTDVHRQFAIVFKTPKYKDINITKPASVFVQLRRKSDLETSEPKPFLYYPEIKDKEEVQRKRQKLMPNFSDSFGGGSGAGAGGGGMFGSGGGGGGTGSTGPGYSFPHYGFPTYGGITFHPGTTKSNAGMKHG
# Nuclear factor NF-kappa-B complex, sequence (Q00653 1-454 limits assumed): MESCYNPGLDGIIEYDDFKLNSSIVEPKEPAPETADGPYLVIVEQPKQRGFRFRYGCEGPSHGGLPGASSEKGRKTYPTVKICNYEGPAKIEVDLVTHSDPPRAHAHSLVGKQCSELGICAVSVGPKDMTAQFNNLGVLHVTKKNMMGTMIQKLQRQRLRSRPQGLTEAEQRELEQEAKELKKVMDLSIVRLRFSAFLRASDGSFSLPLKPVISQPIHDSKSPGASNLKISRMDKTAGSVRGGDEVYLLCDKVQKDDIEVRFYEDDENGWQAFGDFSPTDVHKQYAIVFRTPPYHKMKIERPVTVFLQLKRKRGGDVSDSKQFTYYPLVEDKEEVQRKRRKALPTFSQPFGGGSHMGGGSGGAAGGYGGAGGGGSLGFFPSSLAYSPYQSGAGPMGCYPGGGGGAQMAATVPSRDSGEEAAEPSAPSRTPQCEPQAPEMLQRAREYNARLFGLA
# Nuclear factor NF-kappa-B complex, sequence (Q04206 whole entry): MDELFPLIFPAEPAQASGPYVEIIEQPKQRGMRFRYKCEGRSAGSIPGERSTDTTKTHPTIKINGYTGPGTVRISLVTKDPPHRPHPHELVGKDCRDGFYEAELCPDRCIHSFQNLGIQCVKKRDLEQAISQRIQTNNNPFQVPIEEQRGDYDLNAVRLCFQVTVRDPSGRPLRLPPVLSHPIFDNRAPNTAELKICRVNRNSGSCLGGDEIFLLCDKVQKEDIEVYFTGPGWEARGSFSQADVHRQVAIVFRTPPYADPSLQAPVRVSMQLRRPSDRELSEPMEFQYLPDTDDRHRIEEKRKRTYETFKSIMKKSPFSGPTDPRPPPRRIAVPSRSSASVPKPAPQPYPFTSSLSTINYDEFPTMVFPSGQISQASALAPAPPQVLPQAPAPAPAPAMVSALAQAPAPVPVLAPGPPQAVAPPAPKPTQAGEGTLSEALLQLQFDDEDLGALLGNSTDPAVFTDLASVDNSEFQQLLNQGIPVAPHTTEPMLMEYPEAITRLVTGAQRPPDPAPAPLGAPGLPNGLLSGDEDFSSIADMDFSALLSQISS
row,IC50,SMILES
1,> 100 µM,CCc1nn(CC(=O)Nc2cccc(C(C)=O)c2)c(=O)c2cc3sccc3n12

# System: not listed separately
# Assay: Metabolic stability in rat liver microsomes assessed as intrinsic clearance
# Type: ADME, Microsome
# Settings: read-out: CLH
row,microsomal CLint,SMILES
1,40 µL/min/mg,CCc1nn(CC(=O)NC2CCCNC2)c(=O)c2cc3sccc3n12 (stereo unspecified)

# System: Cytochrome P450
# Assay: Drug metabolism in human liver microsomes assessed as CYP450-driven thiophene oxidation mediated metabolite formation by LC-MS/MS analysis
# Type: ADME, Microsome
# Settings: not given
row,Drug metabolism,SMILES
1,Metabolite_Detected,CC(C)c1nn(CC(=O)Nc2cccnc2)c(=O)c2cc3sccc3n12

# Molecular target: Voltage-gated inwardly rectifying potassium channel KCNH2 (Homo sapiens, UniProt Q12809)
# Assay: Displacement of [3H]-dofetilide from human ERG
# Type: toxicity
# Settings: not given
# Voltage-gated inwardly rectifying potassium channel KCNH2, sequence (Q12809 whole entry): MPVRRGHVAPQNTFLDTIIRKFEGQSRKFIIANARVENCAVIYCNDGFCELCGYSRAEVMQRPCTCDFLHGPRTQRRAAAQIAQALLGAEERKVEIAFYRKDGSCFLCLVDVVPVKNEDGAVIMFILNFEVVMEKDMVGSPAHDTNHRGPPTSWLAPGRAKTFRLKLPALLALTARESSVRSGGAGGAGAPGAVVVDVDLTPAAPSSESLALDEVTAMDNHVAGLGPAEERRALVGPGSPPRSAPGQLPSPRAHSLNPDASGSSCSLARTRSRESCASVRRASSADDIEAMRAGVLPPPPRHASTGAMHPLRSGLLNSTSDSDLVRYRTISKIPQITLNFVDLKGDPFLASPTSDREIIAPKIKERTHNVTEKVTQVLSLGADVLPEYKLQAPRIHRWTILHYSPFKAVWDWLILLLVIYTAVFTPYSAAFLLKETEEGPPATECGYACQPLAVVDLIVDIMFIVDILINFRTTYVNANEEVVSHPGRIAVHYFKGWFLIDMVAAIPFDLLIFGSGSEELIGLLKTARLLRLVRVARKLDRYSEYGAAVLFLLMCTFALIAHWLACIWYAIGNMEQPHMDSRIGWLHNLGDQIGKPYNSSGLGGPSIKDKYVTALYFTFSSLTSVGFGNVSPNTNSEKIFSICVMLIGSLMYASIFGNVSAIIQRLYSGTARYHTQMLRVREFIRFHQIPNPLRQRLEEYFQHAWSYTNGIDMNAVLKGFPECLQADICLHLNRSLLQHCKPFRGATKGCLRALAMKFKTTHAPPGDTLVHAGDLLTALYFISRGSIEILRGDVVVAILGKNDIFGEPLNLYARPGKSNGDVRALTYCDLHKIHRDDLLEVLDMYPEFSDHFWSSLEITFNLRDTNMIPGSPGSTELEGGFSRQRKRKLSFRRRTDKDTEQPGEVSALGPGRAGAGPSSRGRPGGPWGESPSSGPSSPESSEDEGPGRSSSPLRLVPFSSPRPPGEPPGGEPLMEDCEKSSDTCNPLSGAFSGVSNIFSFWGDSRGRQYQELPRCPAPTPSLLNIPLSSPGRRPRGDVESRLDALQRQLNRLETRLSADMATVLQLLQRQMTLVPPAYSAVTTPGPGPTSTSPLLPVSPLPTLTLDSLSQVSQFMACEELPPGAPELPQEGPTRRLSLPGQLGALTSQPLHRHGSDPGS
row,SMILES,IC50
1,CC(C)c1nn(CC(=O)N[C@@H]2CCCN(C)C2)c(=O)c2cc3sc(Cl)cc3n12,> 30 µM
2,CC(C)c1nn(CC(=O)N[C@@H]2CCCNC2)c(=O)c2cc3sc(Cl)cc3n12,26 µM

# System: not listed separately
# Assay: In vivo inhibition of NLRP3 in LPS/ATP-induced C57BL/6 mouse model of acute peritonitis assessed as reduction in IL-1beta level at 50 mg/kg, po preadministered with compound for 1 hrs followed by LPS stimulation for 2 hrs and measured 15 mins after ATP addition by ELISA relative to control
# Type: functional
# Settings: time 3.25 hrs
row,SMILES,inhibition in vivo at 50 mg/kg
1,CC(C)c1nn(CC(=O)N[C@@H]2CCCN(C)C2)c(=O)c2cc3scnc3n12,40%
2,CC(C)(O)c1nn(CC(=O)N[C@H]2C[C@@](C)(O)C2)c(=O)c2cc3sc(Cl)cc3n12,30%

# System: not listed separately
# Assay: Drug concentration in blood of C57BL/6 mouse model of acute peritonitis at 50 mg/kg, po preadministered with compound for 1 hrs followed by LPS stimulation for 2 hrs and measured 15 mins after ATP addition by HPLC-MS/MS analysis
# Type: ADME, organism-based
# Settings: whole blood, read-out: Ct
row,concentration at 3.25 h,SMILES
1,113 nM,CC(C)c1nn(CC(=O)N[C@@H]2CCCN(C)C2)c(=O)c2cc3scnc3n12
2,65 nM,CC(C)(O)c1nn(CC(=O)N[C@H]2C[C@@](C)(O)C2)c(=O)c2cc3sc(Cl)cc3n12
